Experimental findings from patent publication US7875621B2, “Substituted 2-alkyl quinazolinone derivatives as PARP inhibitors” (Janssen Pharmaceutica NV, priority 2004, dated 2011) are described below.

The first test deals with PARP-1 enzyme (Homo sapiens, UniProt P09874). As to the kind of experiment: In vitro scintillation proximity assay (SPA) for PARP-1 inhibitory activity. In kind it is biochemical.
PARP-1 enzyme, sequence (P09874 whole entry): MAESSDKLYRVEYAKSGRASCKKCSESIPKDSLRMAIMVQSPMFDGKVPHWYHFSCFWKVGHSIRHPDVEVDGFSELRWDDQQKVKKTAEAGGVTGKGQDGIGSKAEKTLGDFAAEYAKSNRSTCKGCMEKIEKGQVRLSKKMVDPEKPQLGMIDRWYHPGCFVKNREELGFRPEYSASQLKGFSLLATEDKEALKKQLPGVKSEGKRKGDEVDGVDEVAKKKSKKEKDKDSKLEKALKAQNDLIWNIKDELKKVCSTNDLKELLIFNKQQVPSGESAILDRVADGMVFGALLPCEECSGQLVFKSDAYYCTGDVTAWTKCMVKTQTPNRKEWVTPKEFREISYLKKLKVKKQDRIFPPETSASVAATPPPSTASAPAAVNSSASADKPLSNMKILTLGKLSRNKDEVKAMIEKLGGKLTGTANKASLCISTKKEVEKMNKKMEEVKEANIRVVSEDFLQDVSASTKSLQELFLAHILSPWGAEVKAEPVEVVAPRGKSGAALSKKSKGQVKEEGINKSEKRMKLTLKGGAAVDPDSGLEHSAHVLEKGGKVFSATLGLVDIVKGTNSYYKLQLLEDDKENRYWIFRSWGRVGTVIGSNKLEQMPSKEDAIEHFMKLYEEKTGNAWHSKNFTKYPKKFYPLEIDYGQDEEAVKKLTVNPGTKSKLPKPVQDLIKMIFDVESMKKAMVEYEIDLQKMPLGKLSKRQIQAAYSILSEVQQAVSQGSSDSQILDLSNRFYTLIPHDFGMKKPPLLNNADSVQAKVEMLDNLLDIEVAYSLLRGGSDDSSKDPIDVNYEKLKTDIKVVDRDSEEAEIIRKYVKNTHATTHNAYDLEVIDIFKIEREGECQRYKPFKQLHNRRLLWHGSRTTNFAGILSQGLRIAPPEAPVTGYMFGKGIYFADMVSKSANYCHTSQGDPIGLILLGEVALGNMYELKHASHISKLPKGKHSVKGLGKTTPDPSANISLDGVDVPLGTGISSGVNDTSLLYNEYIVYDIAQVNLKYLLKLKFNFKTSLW
Conditions: not given
As to the method:
In Vitro Scintillation Proximity Assay (SPA) for PARP-1 Inhibitory Activity
Compounds of the present invention were tested in an in vitro assay based on SPA technology (proprietary to Amersham Pharmacia Biotech).
In principle, the assay relies upon the well established SPA technology for the detection of poly(ADP-ribosyl)ation of biotinylated target proteins, i.e histones. This ribosylation is induced using nicked DNA activated PARP-1 enzyme and [^3H]-nicotinamide adenine dinucleotide ([^3H]-NAD^+) as ADP-ribosyl donor.
As inducer of PARP-1 enzyme activity, nicked DNA was prepared. For this, 25 mg of DNA (supplier: Sigma) was dissolved in 25 ml DNAse buffer (10 mM Tris-HCl, pH 7.4; 0.5 mg/ml Bovine Serum Albumine (BSA); 5 mM MgCl2.6H2O and 1 mM KCl) to which 50 μl DNAse solution (1 mg/ml in 0.15 M NaCl) was added. After an incubation of 90 min. at 37° C., the reaction was terminated by adding 1.45 g NaCl, followed by a further incubation at 58° C. for 15 min. The reaction mixture was cooled on ice and dialysed at 4° C. for respectively 1.5 and 2 hours against 1.5 l of 0.2 M KCl, and twice against 1.5 l of 0.01 M KCl for 1.5 and 2 h respectively. The mixture was aliquoted and stored at −20° C. Histones (1 mg/ml, type II-A, supplier: Sigma) were biotinylated using the biotinylation kit of Amersham and stored aliquoted at −20° C. A stock solution of 100 mg/ml SPA poly(vinyl toluene) (PVT) beads (supplier: Amersham) was made in PBS. A stock solution of [^3H]-NAD^+ was made by adding 120 μl of [^3H]-NAD^+ (0.1 mCi/ml, supplier: NEN) to 6 ml incubation buffer (50 mM Tris/HCl, pH 8; 0.2 mM DTT; 4 mM MgCl2). A solution of 4 mM NAD^+ (supplier: Roche) was made in incubation buffer (from a 100 mM stock solution in water stored at −20° C.). The PARP-1 enzyme was produced using art known techniques, i.e. cloning and expression of the protein starting from human liver cDNA. Information concerning the used protein sequence of the PARP-1 enzyme including literature references can be found in the Swiss-Prot database under primary accession number P09874. Biotinylated histones and PVT-SPA beads were mixed and pre-incubated for 30 min. at room temperature. PARP-1 enzyme (concentration was lot dependent) was mixed with the nicked DNA and the mixture was pre-incubated for 30 min. at 4° C. Equal parts of this histones/PVT-SPA beads solution and PARP-1 enzyme/DNA solution were mixed and 75 μl of this mixture together with 1 μl of compound in DMSO and 25 μl of [^3H]-NAD^+ was added per well into a 96-well microtiterplate. The final concentrations in the incubation mixture were 2 μg/ml for the biotinylated histones, 2 mg/ml for the PVT-SPA beads, 2 μg/ml for the nicked DNA and between 5-10 μg/ml for the PARP-1 enzyme. After incubation of the mixture for 15 min. at room temperature, the reaction was terminated by adding 100 μl of 4 mM NAD in incubation buffer (final concentration 2 mM) and plates were mixed.
The beads were allowed to sediment for at least 15 min. and plates transferred to a TopCountNXT™ (Packard) for scintillation counting, values were expressed as counts per minute (cpm). For each experiment, controls (containing PARP-1 enzyme and DMSO without compound), a blank incubation (containing DMSO but no PARP-1 enzyme or compound) and samples (containing PARP-1 enzyme and compound dissolved in DMSO) were run in parallel. All compounds tested were dissolved and eventually further diluted in DMSO. […] In each test, the blank value was subtracted from both the control and the sample values. The control sample represented maximal PARP-1 enzyme activity. For each sample, the amount of cpm was expressed as a percentage of the mean cpm value of the controls. When appropriate, IC50-values (concentration of the drug, needed to reduce the PARP-1 enzyme activity to 50% of the control) were computed using linear interpolation between the experimental points just above and below the 50% level. […]
The molecule `O=C1NC(CCN2CCC(n3c(=O)[nH]c4ccccc43)CC2)Nc2ccccc21` (stereo not drawn) [Compound 13] had an IC50 of 318 nM.

The same test, now with this note: [3H]-NAD+, nicked DNA, biotinylated histones; read-out: in vitro SPA assay PARP-1 pIC50 (converted).
For the molecule `O=C1NCN(c2ccccc2)C12CCN(CCCc1nc3ccccc3c(=O)[nH]1)CC2` [Compound 2], the IC50 is 385 nM.

`O=C(CC1CCN(CCc2nc3ccccc3c(=O)[nH]2)CC1)c1ccc(F)cc1` [Compound 3]: the IC50 is 560 nM.

As to `NC(=O)C1(c2ccccc2)CCN(CCCc2nc3ccccc3c(=O)[nH]2)CC1` [Compound 4], the IC50 is 20 nM.

`NC(=O)C1(c2ccccc2)CCN(CCCC2NC(=O)c3ccccc3N2)CC1` (stereo not drawn) [Compound 5]: the IC50 is 22.9 nM.

Regarding `O=C1NC(CCN2CCC3(CC2)C(=O)NCN3c2ccccc2)Nc2ccccc21` (stereo not drawn) [Compound 6], the IC50 was 178 nM.

Consider `O=C1NC(CCCN2CCC(n3c(=O)[nH]c4ccccc43)CC2)Nc2ccccc21` (stereo not drawn) [Compound 7], for which the IC50 was 585 nM.

For `O=C(NC1CCN(CCCC2NC(=O)c3ccccc3N2)CC1)c1ccccc1` (stereo not drawn) [Compound 8], the IC50 is 236 nM.

For `O=C(c1ccc(F)cc1)C1CCN(CCc2nc3ccccc3c(=O)[nH]2)CC1` [Compound 9], the IC50 was 611 nM.

Regarding `NC(=O)C1(N2CCOCC2)CCN(CCCc2nc3ccccc3c(=O)[nH]2)CC1` [Compound 11], the IC50 is 188 nM.

Turning to `O=C(NC1CCN(CCCc2nc3ccccc3c(=O)[nH]2)CC1)c1ccccc1` [Compound 12], the IC50 was 117 nM.

`O=C(c1ccc(F)cc1)C1CCN(CCCc2nc3ccccc3c(=O)[nH]2)CC1` [Compound 14]: the IC50 is 58.6 nM.
